According to patent US20090054411A1, “4-ANILINOQUINOLINE-3-CARBOXAMIDES AS CSF-1R KINASE INHIBITORS” (AstraZeneca AB, priority 2006, published 2009):

Molecular target: T1, CSF-1R (Homo sapiens, UniProt P07333)
T1 construct: His-tagged kinase domain of CSF-1R (i.e., amino acids 568-912, GeneBank ID NM_005211); His; made in house; host or cells: baculovirus-infected SF+Express insect cells
T1 sequence (P07333 568-912): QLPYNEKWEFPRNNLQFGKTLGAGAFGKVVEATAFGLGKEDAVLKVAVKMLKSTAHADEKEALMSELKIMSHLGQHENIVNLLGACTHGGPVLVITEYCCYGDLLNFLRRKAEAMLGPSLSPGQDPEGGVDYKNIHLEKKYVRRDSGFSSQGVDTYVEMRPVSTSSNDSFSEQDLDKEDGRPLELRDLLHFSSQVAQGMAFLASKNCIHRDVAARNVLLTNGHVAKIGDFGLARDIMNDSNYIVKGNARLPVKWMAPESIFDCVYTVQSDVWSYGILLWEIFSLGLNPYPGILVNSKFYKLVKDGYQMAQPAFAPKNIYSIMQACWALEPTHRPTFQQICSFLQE
Test: CSF-1R In Vitro AlphaScreen Assay
Assay type: biochemical
Conditions: purified His-tagged kinase domain of CSF-1R, pEY substrate, 90 μM ATP
Description: Activity of purified CSF-1R was determined in vitro using an Amplified Luminescent Proximity Homogeneous Assay (ALPHA)(Perkin Elmer), which measures phosphorylation of the CSF-1R substrate, biotinylated poly-glutamine-tyrosine peptide (pEY-HTRF CisBio 61GT0BLD), as described below.
The phosphorylation of the CSF-1R substrate in the presence and absence of the compound of interest was determined. […] Plates were incubated at 25° C. for 18 hours in the dark. Phosphorylated substrate was detected by an EnVision plate reader (Perkin Elmer) 680 nm excitation, 520-620 nm emission. Data was graphed and IC50s calculated using Excel Fit (Microsoft).

IC50	SMILES
0.023 µM	COc1cc2c(Nc3cccc(Cl)c3Cl)c(C(N)=O)cnc2cc1N1CCN(C)CC1 [Example 9]
0.154 µM	NC(=O)c1cnc2cc(F)c(N3CCOCC3)cc2c1Nc1ccc(F)cc1F [Example 18]
